Test results from patent US20130302362A1, “Immunomodulatory Compositions, Methods and Systems Comprising Immunogenic Fragments of ApoB-100” (CEDARS-SINAI MEDICAL CENTER, priority 2010, published 2013).

What was measured:
atherosclerosis = conditions: immunization with peptide or peptide combination; WO 02/080954 Table B; cited from earlier work
AT1 receptor (AT1R) = assay: Aortic AT1 receptor expression by Western blot (AngII model); assay type: in vivo, mice; conditions: ± SEM; N = 6
Perforin = Perforin level in CD8(+) T-cells from immunized mice; assay type: cell-based; conditions: compared to PBS or cBSA/alum group
Experimental: (§1) Flow cytometric analysis was performed using standard protocols with antibodies listed in Table 1 below and a FACScan (Becton Dickinson) or a CyAn ADP analyzer (Beckman Coulter). For intracellular cytokine staining, Brefeldin A (3 μg/ml) was added to the cultured cells for 2 hours before cells subject to staining procedure. Cell membranes were permeabilized for staining intracellular molecules.

KLH = KLH immunization after p210 immunization, KLH IgG titer; assay type: in vivo, Male C57/BL6 mice; conditions: prior p210 immunization vs PBS or cBSA/alum; 100 μg KLH s.c. at 13 and 15 weeks
Description: (§2) The coating concentration was optimized in pilot experiments.

superoxide = assay: Aortic superoxide production by in situ dihydroethidine method (AngII model); assay type: in vivo, mice; conditions: ± SEM; N = 9
Male apoE (−/−) mice = assay: p210 immunization, aortic atherosclerosis (en face Oil Red O; aortic sinus immunohistochemistry); assay type: in vivo
Description: Selection of peptides and their preparation for immunization The establishment and screening of human apoB-100 peptides has been reported (8). Based on Applicants pilot experiments and prior reports, see references (9),(10) Applicants selected peptide 210 (p210, KTTKQ SFDLS VKAQY KKNKH—SEQ ID NO: 210) as a candidate immunogen. Native p210 peptide (Euro-Diagnostica AB, Sweden) was conjugated to cationic bovine serum albumin (cBSA) as carrier using a method described previously see references (3), (4) Alum was used as adjuvant and mixed with peptide/cBSA conjugate with 1:1 ratio in volume. Peptide conjugation and mixing with alum were prepared fresh prior to each immunization.
Male apoE (−/−) mice (Jackson Laboratories) were housed in an animal facility accredited by the American Association of Accreditation of Laboratory Animal Care and kept on a 12-hour day/night cycle with unrestricted access to water and food. The Institutional Animal Care and Use Committee of Cedars-Sinai Medical Center approved the experimental protocols. […] Mice, maintained on normal chow diet, received subcutaneous primary immunization in the dorsal area between scapulas at 6-7 weeks of age, followed by a booster at 9 and 12 weeks of age. One week after last booster, diet was switched to high cholesterol chow (TD 88137, Harlan-Teklad) and continued until euthanasia at the age of 25 weeks. Separate groups of mice receiving PBS or cBSA/alum at the same immunization time-points served as control. Some mice were sacrificed at 8 or 13 weeks of age to assess immune response against p210.
At euthanasia the hearts were harvested and embedded in OCT compound (Tissue-Tek) for cryo-section. Whole aortas were cleaned, processed and stained with Oil Red 0 to assess the extent of atherosclerosis en face with computer-assisted histomorphometry, see references (3),(4).
The sections from aortic sinus were stained with MOMA-2 (Serotec), or CD11c (eBioscience) antibody to identify macrophages or dendritic cells immunohistochemically using standard protocol. Oil-Red-O stain for plaque size was done using standard protocol. […]

BMDCs = assay: Endocytosis of FITC-labeled p210 by DCs in vitro; assay type: cell-based, mice; conditions: p210 labeled with FITC; FITC fluorescence in BMDCs
Experimental: (§3) The method for generating BMDC with GM-CSF was adapted from previous publication with modification see reference (19). Briefly, bone marrow cells from femurs and tibiae of male apoE−/− mice were plated into 10 cm culture plates (Falcon) with 20 ml complete RPMI-1640 containing 10 ng/ml GM-CSF (R&D Systems) and 10 ng/ml IL-4 (Invitrogen). Cells were washed and fed on day 3 and day 5 by removing the old medium followed by replenishing with fresh culture medium with GM-CSF and IL-4. On day 8, the immature DC appeared as non-adherent cells under the microscope and harvested by vigorous pipetting and subcultured into new culture plates with 2×10^5 DCs in 1.5 ml medium.
Peptide loading on BMDCs was defined using p210 labeled with FITC (FITC conjugating kit from Pierce).

CD8^+ CD25^− T cells = assay: Presentation of p210 by DCs to CD8+ CD25− T cells in vitro; assay type: cell-based, mice; conditions: 48 hours; DCs loaded with p210 and treated with LPS; compared to untreated or LPS only
Description: The p210 peptide contains the proteoglycan binding site of the apoB-100 molecule. This peptide is a cell-penetrating peptide capable of efficiently delivering antigens for cross-presentation to cytotoxic CD8^+ T cells.^53 Applicants therefore assessed activation of CD8^+ CD25^− T cells co-cultured with DCs loaded with p210 and matured with LPS.

CD11c(+) dendritic cells = assay: Flow cytometric analysis of dendritic cells at immunization site and lymph nodes; assay type: in vivo, mice; conditions: 1 week after the third immunization; compared with cBSA/alum group
Experimental: as §1
Since DCs are the major cell type upstream to both cellular and humoral immune responses, Applicants determined if these cells were affected by the immunization strategy. […]

[1] = system: naïve male apoE (−/−) recipient mice; assay: Adoptive transfer of lymphocytes from immunized donors, aortic atherosclerosis in recipients; assay type: in vivo; conditions: 2×10^7 donor B-cells/mouse
Description: Male apoE (−/−) mice on regular chow received subcutaneous immunization as described in previous paragraph and were sacrificed at 13 weeks of age as donors. Splenocytes from the same treatment group were pooled before cell isolation. Donor CD8(+) T-cells, CD4(+)CD25(+) T-cells or B-cells were isolated using Dynabeads FlowComp (Invitrogen) according to the manufacturer's protocols. CD4(+) T-cells were negatively selected from the splenocytes followed by positive selection of CD4(+)CD25(+) cells. B cells were negatively isolated whereas CD8(+) T-cells were positively isolated first and released from beads. The purity of pooled CD8(+) T-cells, CD4(+)CD25(+) T-cells and B-cells was 90%, 80% and 70%, respectively. The isolated CD8(+) T-cells (1×10^6 cells/mouse), CD4(+)CD25(+) T-cells (1×10^5 or 3×10^5 cells/mouse) or B-cells (2×10^7 cells/mouse) were then adoptively transferred to naïve male apoE (−/−) recipient mice at 6-7 weeks of age via tail vein injection. In the published literatures of vascular biology, the number of adoptively transferred lymphocytes varied greatly. For B-cells transfer, the number of 2×10^7 cells/mouse was chosen based on two prior reports, see references (11),(12). For CD4(+)CD25(+) T-cells transfer, the number of cells transferred ranged from 5×10^4 cells/mouse to 1×10^6 cells/mouse in the published literature see references (13),(14),(15). […]

Granzyme B = Granzyme B level in CD8(+) T-cells from immunized mice; assay type: cell-based; conditions: compared to PBS or cBSA/alum group
Experimental: as §1

bone marrow derived DCs = assay: Cytolytic activity of CD8(+) T-cells from immunized mice against dendritic cells in vitro; assay type: cell-based
Experimental: as §3
CD8(+) T-cells were negatively isolated using a CD8 selection Dynabeads kit (Invitrogen) per manufacturer's protocol. […] After co-culture for 4 hours, cells were collected and processed for flow cytometric determination of CD11c and 7-AAD by LSR II flow cytometer (BD Biosciences) and data was analyzed with Summit V4.3 software. Dendritic cell death without CD8(+) T-cells in the co-culture was used as baseline and percentage of specific lysis of cells was calculated using a method described previously, see reference (20). […]
Applicants therefore assessed the effect of the vaccine on cytotoxic activity of CD8^+ T cells against syngeneic bone marrow-derived DCs. […]

Male apoE KO mice [2] = assay: AngII-induced aortic aneurysm formation, rupture and survival after immunization
Experimental: Fourteen P210, 17 cBSA, 16 PBS, and 8 Saline injected mice were examined.
AngII (1000 ng/Kg/min) was delivered by a subcutaneous osmotic pump implanted at 10 weeks of age for 4 weeks to cause aneurysms in all three groups. Saline was delivered to the control group. Mice were sacrificed at 14 weeks of age of age. The mice were fed normal chow for the duration of experiment.
42 P210, 46 cBSA, 37 PBS, and 8 Saline injected mice were examined.
AngII (1000 ng/Kg/min) was delivered by a subcutaneous osmotic pump implanted at 10 weeks of age for 4 weeks to cause aneurysms in all three groups. Saline was delivered to the control group. Mice were sacrificed at 14 weeks of age of age. The male apoE KO mice were fed normal chow for the duration of experiment.
AngII (1000 ng/Kg/min) was delivered by a subcutaneous osmotic pump implanted at 10 weeks of age for 4 weeks to cause aneurysms in all three groups. Saline was delivered to the control group. Mice were sacrificed at 14 weeks of age of age. 42 P210, 46 cBSA, 37 PBS, and 8 Saline injected mice were examined. Mice were sacrificed at 14 weeks of age. The male apoE KO mice were fed normal chow for the duration of experiment.
At 10 weeks of age, mice were subcutaneously implanted with an osmotic pump which released AngII (1 mg/Kg/min), and were euthanized 4 weeks later.

[3] = system: IFN-γ expression of dendritic cells (DCs); assay: Flow cytometric analysis of intracellular IFN-γ expression of dendritic cells (AngII model); assay type: in vivo, mice; conditions: ± SEM of CD11c-gated cells
TNP = assay: TNP-LPS immunization after p210 immunization, TNP IgG titer; assay type: in vivo, Male C57/BL6 mice; conditions: prior p210 immunization vs PBS or cBSA/alum; 100 μg TNP-LPS i.p.
Description: as §2

Male apoE KO mice [4] = assay: Blood pressure and heart rate in AngII-infused immunized mice; assay type: in vivo
Experimental: Saline was delivered to the control group.
Angiotensin II infusion via implanted osmotic pump was started at 10 weeks of age. Mice were euthanized at 14 weeks of age. Blood pressure was measured throughout the duration of experiment.

[5] = 100 μg s.c., three immunizations, high cholesterol chow, euthanasia at 25 weeks
[6] = AngII pump 4 weeks, total 14 p210, 17 cBSA

EEEML ENVSL VCPKD ATRFK (EEEMLENVSLVCPKDATRFK) [p1]
percentage reduction (atherosclerosis) (atherosclerosis): 31%

HTFLI YITEL LKKLQ STTVM (HTFLIYITELLKKLQSTTVM) [p301]
percentage reduction (atherosclerosis) (atherosclerosis): 55.2%

KTTKQ SFDLS VKAQY KKNKH (KTTKQSFDLSVKAQYKKNKH) [p210]
Aortic AT1R (AT1 receptor (AT1R)): 1.0 ± 0.2 arbitrary densitometric unit
perforin level in CD8(+) T-cells (Perforin): no difference in perforin level
percentage reduction (atherosclerosis) (atherosclerosis): 57.9%
KLH-IgG titer (KLH): no difference
Aortic superoxide production (superoxide): 1.1 ± 0.1 arbitrary fluorescent intensity unit
reduction of aortic atherosclerosis compared to PBS group (Male apoE (−/−) mice; [5]): 57%
reduction of aortic atherosclerosis compared to cBSA/Alum group (Male apoE (−/−) mice; [5]): 50%
athero-reduction, dose comparison (Male apoE (−/−) mice; pilot experiment, 100 μg dose compared to 25 or 50 μg dose): optimum athero-reduction
uptake of FITC-labeled p210 by dendritic cells (BMDCs): uptake of p210 by dendritic cells
CD8+ CD25+ T cells after co-culture with p210-loaded DCs (CD8^+ CD25^− T cells): significantly increased CD8^+ CD25^+ T cells
CD11c(+)CD86(+) cells in lymph nodes (CD11c(+) dendritic cells): reduced CD11c(+)CD86(+) cells in lymph nodes
atherosclerosis in recipients of B cells [1]: did not affect atherosclerosis
Granzyme B level in CD8(+) T-cells (Granzyme B): higher level of Granzyme B
percent lysis relative to basal lysis, Normal medium (bone marrow derived DCs; CD8:DC 3:1, 4 hours, 10% FBS, CD11c-gated cells, N = 11): significantly increased the percentage of DC death
cytolytic activity of CD8+ T cells after depletion of CD25+ cells (bone marrow derived DCs; FIG. 15, panel B): abrogated the increased cytolytic activity
Aneurysmal segment/total segment (%) (Male apoE KO mice [2]; 8 aortic segments, AngII pump): 14.3%
Survival at 28 days (Male apoE KO mice [2]; 28 days after osmotic pump implantation for Ang II infusion, 42 P210, 46 cBSA mice): 90.5%
Aneurysm incidence (Male apoE KO mice [2]; Ang II pump, 42 P210, 46 cBSA mice): 54.8%
Aneurysm (include Rupture) (number of mice) (Male apoE KO mice [2]; [6]): 8
Rupture (number of mice) (Male apoE KO mice [2]; [6]): 1
Rupture incidence (%, total) (Male apoE KO mice [2]; [6]): 7.1%
alive (number of mice) (Male apoE KO mice [2]; [6]): 13
LN CD11c+CD86+IFN-γ+ DCs ([3]; N = 6): 26.7 ± 1.6 percentage
Spleen CD11c+CD86+IFN-γ+ DCs ([3]; N = 8): 19.5 ± 1.6 percentage
TNP-IgG titer (TNP): no difference
reduction in blood pressure (Male apoE KO mice [4]; 4 weeks after pump implantation (FIG. 11)): ~11%
change in heart rate (Male apoE KO mice [4]; 4 weeks after pump implantation (FIG. 12A)): ~7%
Mean Arterial Blood Pressure (BP) (Male apoE KO mice [4]; ± SEM at 13 weeks of age, p210 N = 9, cBSA N = 7): 124 ± 4 mmHg

IEIGL EGKGF EPTLE ALFGK (IEIGLEGKGFEPTLEALFGK) [p45]
percentage reduction (atherosclerosis) (atherosclerosis): 47.4%
